Assays:
Type in all cases: in vivo
[1] = system: blackgrass (Alopecurus myosuroides); assay: Test C preemergence, blackgrass; settings: 0 is no effect, 100 is complete control
Source text: (§1) Seeds of plant species selected from blackgrass (Alopecurus myosuroides), corn (Zea mays), foxtail, giant (giant foxtail, Setaria faberi), goosegrass (Eleusine indica), kochia (Bassia scoparia), oat, wild (wild oat, Avena fatua), pigweed, palmer (palmer amaranth, Amaranthus palmeri), ragweed (common ragweed, Ambrosia artemisiifolia), ryegrass, Italian (Italian ryegrass, Lolium multiflorum), soybean (Glycine max) and wheat (Triticum aestivum) were planted into a blend of loam soil and sand and treated preemergence with a directed soil spray using test chemicals formulated in a non-phytotoxic solvent mixture which included a surfactant.
(§2) At the same time, plants selected from these crop and weed species and also galium (catchweed bedstraw, Galium aparine) and horseweed (Erigeron canadensis) were planted in pots containing the same blend of loam soil and sand and treated with postemergence applications of test chemicals formulated in the same manner. Plants ranged in height from 2 to 10 cm and were in the one- to two-leaf stage for the postemergence treatment. Treated plants and untreated controls were maintained in a greenhouse for 10 or 12 days, after which time all treated plants were compared to untreated controls and visually evaluated for injury. Plant response ratings, summarized in Table A, are based on a 0 to 100 scale where 0 is no effect and 100 is complete control. A dash (-) response means no test result.

[2] = system: corn (Zea mays); assay: Test C preemergence, corn; settings: 0 is no effect, 100 is complete control
Source text: as §1, §2

[3] = system: foxtail, giant (giant foxtail, Setaria faberi); assay: Test C preemergence, giant foxtail; settings: 0 is no effect, 100 is complete control
Source text: as §1, §2

[4] = system: goosegrass (Eleusine indica); assay: Test C preemergence, goosegrass; settings: 0 is no effect, 100 is complete control
Source text: as §1, §2

[5] = system: kochia (Bassia scoparia); assay: Test C preemergence, kochia; settings: 0 is no effect, 100 is complete control
Source text: as §1, §2

[6] = system: oat, wild (wild oat, Avena fatua); assay: Test C preemergence, wild oat; settings: 0 is no effect, 100 is complete control
Source text: as §1, §2

[7] = system: pigweed, palmer (palmer amaranth, Amaranthus palmeri); assay: Test C preemergence, palmer amaranth; settings: 0 is no effect, 100 is complete control
Source text: as §1, §2

[8] = system: ragweed (common ragweed, Ambrosia artemisiifolia); assay: Test C preemergence, ragweed; settings: 0 is no effect, 100 is complete control
Source text: as §1, §2

[9] = system: ryegrass, Italian (Italian ryegrass, Lolium multiflorum); assay: Test C preemergence, Italian ryegrass; settings: 0 is no effect, 100 is complete control
Source text: as §1, §2

[10] = system: soybean (Glycine max); assay: Test C preemergence, soybean; settings: 0 is no effect, 100 is complete control
Source text: as §1, §2

[11] = system: wheat (Triticum aestivum); assay: Test C preemergence, wheat; settings: 0 is no effect, 100 is complete control
Source text: as §1, §2

[12] = system: blackgrass (Alopecurus myosuroides); assay: Test C postemergence, blackgrass; settings: 31 g ai/ha Postemergence; visual injury, 0 to 100 scale (0 no effect, 100 complete control)
Source text: as §1, §2

[13] = system: corn (Zea mays); assay: Test C postemergence, corn
Source text: as §1, §2

[14] = system: foxtail, giant (giant foxtail, Setaria faberi); assay: Test C postemergence, giant foxtail
Source text: as §1, §2

[15] = system: goosegrass (Eleusine indica); assay: Test C postemergence, goosegrass
Source text: as §1, §2

[16] = system: kochia (Bassia scoparia); assay: Test C postemergence, kochia
Source text: as §1, §2

[17] = system: oat, wild (wild oat, Avena fatua); assay: Test C postemergence, wild oat
Source text: as §1, §2

[18] = system: pigweed, palmer (palmer amaranth, Amaranthus palmeri); assay: Test C postemergence, palmer amaranth
Source text: as §1, §2

[19] = system: ragweed (common ragweed, Ambrosia artemisiifolia); assay: Test C postemergence, ragweed
Source text: as §1, §2

[20] = system: ryegrass, Italian (Italian ryegrass, Lolium multiflorum); assay: Test C postemergence, Italian ryegrass
Source text: as §1, §2

[21] = system: soybean (Glycine max); assay: Test C postemergence, soybean
Source text: as §1, §2

[22] = system: wheat (Triticum aestivum); assay: Test C postemergence, wheat
Source text: as §1, §2

[23] = system: galium (catchweed bedstraw, Galium aparine); assay: Test C postemergence, galium
Source text: as §1, §2

[24] = system: horseweed (Erigeron canadensis); assay: Test C postemergence, horseweed
Source text: as §1, §2

[25] = system: barnyardgrass (Echinochloa crusgalli); assay: Test D flooded paddy test, barnyardgrass; design: key: 0 = no effect, 100 = complete control; settings: 250 g ai/ha, Flood; applied to paddy water at 2-leaf stage; visual rating after 13 days; scale 0 (no effect) to 100 (complete control)
Procedure: (§3) Plant species in the flooded paddy test selected from barnyardgrass (Echinochloa crusgalli), ducksalad (Heteranthera limosa), rice (Oryza sativa), and sedge, umbrella (small-flower umbrella sedge, Cyperus difformis) were grown to the 2-leaf stage for testing. At time of treatment, test pots were flooded to 3 cm above the soil surface, treated by application of test compounds directly to the paddy water, and then maintained at that water depth for the duration of the test. Treated plants and controls were maintained in a greenhouse for 13 days, after which time all species were compared to controls and visually evaluated. Plant response ratings, summarized in Table B, are based on a scale of 0 to 100 where 0 is no effect and 100 is complete control. A dash (-) response means no test result.

[26] = system: ducksalad (Heteranthera limosa); assay: Test D flooded paddy test, ducksalad; design: key: 0 = no effect, 100 = complete control; settings: 250 g ai/ha, Flood; applied to paddy water at 2-leaf stage; visual rating after 13 days; scale 0 (no effect) to 100 (complete control)
Procedure: as §3

[27] = system: rice (Oryza sativa); assay: Test D flooded paddy test, rice; design: key: 0 = no effect, 100 = complete control; settings: 250 g ai/ha, Flood; applied to paddy water at 2-leaf stage; visual rating after 13 days; scale 0 (no effect) to 100 (complete control)
Procedure: as §3

[28] = system: sedge, umbrella (small-flower umbrella sedge, Cyperus difformis); assay: Test D flooded paddy test, umbrella sedge; design: key: 0 = no effect, 100 = complete control; settings: 250 g ai/ha, Flood; applied to paddy water at 2-leaf stage; visual rating after 13 days; scale 0 (no effect) to 100 (complete control)
Procedure: as §3

[29] = system: blackgrass (Alopecurus myosuroides); assay: Test C postemergence, blackgrass; settings: 125 g ai/ha Postemergence; 0 is no effect, 100 is complete control
[30] = 31 g ai/ha Postemergence, visual injury, 0 to 100 scale (0 no effect, 100 complete control)
[31] = 125 g ai/ha Postemergence, 0 is no effect, 100 is complete control

CCOC(=O)N(c1cc(N2CCC(OC3CC3)C2=O)c(C)cc1C)S(=O)(=O)C(F)(F)F (stereo not shown) [Compound 19]
Plant response rating (0 to 100 scale), Blackgrass ([1]; 31 g ai/ha Preemergence): 0 | Plant response rating (0 to 100 scale), Blackgrass ([1]; 125 g ai/ha Preemergence): 40 | Plant response rating (0 to 100 scale), Corn ([2]; 31 g ai/ha Preemergence): 0 | Plant response rating (0 to 100 scale), Corn ([2]; 125 g ai/ha Preemergence): 0 | Plant response rating (0 to 100 scale), Foxtail, Giant ([3]; 31 g ai/ha Preemergence): 0 | Plant response rating (0 to 100 scale), Foxtail, Giant ([3]; 125 g ai/ha Preemergence): 10 | Plant response rating (0 to 100 scale), Goosegrass ([4]; 31 g ai/ha Preemergence): 0 | Plant response rating (0 to 100 scale), Goosegrass ([4]; 125 g ai/ha Preemergence): 70 | Plant response rating (0 to 100 scale), Kochia ([5]; 31 g ai/ha Preemergence): 0 | Plant response rating (0 to 100 scale), Kochia ([5]; 125 g ai/ha Preemergence): 70 | Plant response rating (0 to 100 scale), Oat, Wild ([6]; 31 g ai/ha Preemergence): 0 | Plant response rating (0 to 100 scale), Oat, Wild ([6]; 125 g ai/ha Preemergence): 40 | Plant response rating (0 to 100 scale), Pigweed, Palmer ([7]; 31 g ai/ha Preemergence): 20 | Plant response rating (0 to 100 scale), Pigweed, Palmer ([7]; 125 g ai/ha Preemergence): 60 | Plant response rating (0 to 100 scale), Ragweed ([8]; 31 g ai/ha Preemergence): 0 | Plant response rating (0 to 100 scale), Ragweed ([8]; 125 g ai/ha Preemergence): 10 | Plant response rating (0 to 100 scale), Ryegrass, Italian ([9]; 31 g ai/ha Preemergence): 0 | Plant response rating (0 to 100 scale), Ryegrass, Italian ([9]; 125 g ai/ha Preemergence): 0 | Plant response rating (0 to 100 scale), Soybean ([10]; 31 g ai/ha Preemergence): 30 | Plant response rating (0 to 100 scale), Soybean ([10]; 125 g ai/ha Preemergence): 90 | Plant response rating (0 to 100 scale), Wheat ([11]; 31 g ai/ha Preemergence): 0 | Plant response rating (0 to 100 scale), Wheat ([11]; 125 g ai/ha Preemergence): 10 | Blackgrass plant response rating [12]: 0 | Corn plant response rating [13, 30]: 0 | Plant response rating (0 to 100 scale), Corn [13, 31]: 20 | Foxtail, Giant plant response rating [14, 30]: 0 | Plant response rating (0 to 100 scale), Foxtail, Giant [14, 31]: 20 | Goosegrass plant response rating [15, 30]: 0 | Plant response rating (0 to 100 scale), Goosegrass [15, 31]: 90 | Kochia plant response rating [16, 30]: 30 | Plant response rating (0 to 100 scale), Kochia [16, 31]: 70 | Oat, Wild plant response rating [17, 30]: 0 | Plant response rating (0 to 100 scale), Oat, Wild [17, 31]: 30 | Pigweed, Palmer plant response rating [18, 30]: 0 | Plant response rating (0 to 100 scale), Pigweed, Palmer [18, 31]: 10 | Ragweed plant response rating [19, 30]: 60 | Plant response rating (0 to 100 scale), Ragweed [19, 31]: 90 | Ryegrass, Italian plant response rating [20, 30]: 0 | Plant response rating (0 to 100 scale), Ryegrass, Italian [20, 31]: 50 | Soybean plant response rating [21, 30]: 80 | Plant response rating (0 to 100 scale), Soybean [21, 31]: 80 | Wheat plant response rating [22, 30]: 0 | Plant response rating (0 to 100 scale), Wheat [22, 31]: 10 | Galium plant response rating [23, 30]: 30 | Plant response rating (0 to 100 scale), Galium [23, 31]: 90 | Horseweed plant response rating [24, 30]: 10 | Plant response rating (0 to 100 scale), Horseweed [24, 31]: 30 | Plant response rating, Barnyardgrass [25]: 0 | Plant response rating, Ducksalad [26]: 0 | Plant response rating, Rice [27]: 0 | Plant response rating, Sedge, Umbrella [28]: 0 | Plant response rating (0 to 100 scale), Blackgrass [29]: 40

From patent publication US20240158348A1, “HERBICIDAL CYCLIC AMIDES N-SUBSTITUTED WITH A HALOALKYLSULFONYLANILIDE GROUP” (FMC Corporation, priority 2021, published 2024)
